This is an account of results in patent publication US4379155A, “3,5-Disubstituted-1H-1,2,4-triazole derivatives” (priority 1981, dated 1983).

Some results are limits rather than exact numbers.

In the first assay the test system is hamsters. Nature of the assay: Post-coital antifertility activity in pregnant hamsters, subcutaneous (days 4-8, autopsy day 14). It counts as in vivo, Syrian golden hamsters. Conditions: 10 mg/kg s.c. daily for 5 days, days 4-8 of pregnancy, sesame oil. How it is done:
Representative experiments for assessing antifertility activity were carried out with femal Syrian golden hamsters weighing 100 to 130 g. The animals were mated and the presence of sperm in the vagina was taken as evidence of mating. […] Pregnancy was later confirmed at the time of autopsy by presence of fetuses or implantation sites in the uterus. Even if an animal aborts the fetus, implantation scars still remain as evidence that the animal has been pregnant.
The animals were autopsied on day 14 of pregnancy and the uteri were examined for evidence of pregnancy (implantation sites, fetal resorptions or live fetuses), hemorrage, and evidence of abnormalities of the uterus, placenta or fetuses.
On to `c1ccc(-c2n[nH]c(-c3ccccc3)n2)cc1` [3,5-diphenyl-1H-1,2,4-triazole, reference compound], for which the “antifertility activity (active: reduction of live fetuses in at least 60% of the treated animals)” value is “much less active”. The same measure, in the same setting: as for `COc1cccc(-c2n[nH]c(-c3ccccc3C)n2)c1` [Example 1, 3-(m-Methoxyphenyl)-5-(o-tolyl)-1H-1,2,4-triazole], the entry is “active”. On the same count and under the same terms, as for `COc1ccccc1-c1n[nH]c(-c2ccccc2C)n1` [Example 4, 3-(o-Methoxyphenyl)-5-(o-tolyl)-1H-1,2,4-triazole], the entry is “active”. On the same count and under the same terms, under `CCc1ccccc1-c1nc(-c2cccc(F)c2)n[nH]1` [Example 18, 5-(o-Ethylphenyl)-3-(m-fluorophenyl)-1H-1,2,4-triazole] stands “active”. In the case of `CCc1ccccc1-c1nc(-c2ccc3c(c2)OCO3)n[nH]1` [Example 22, 5-(o-Ethylphenyl)-3-(3,4-methylenedioxyphenyl)-1H-1,2,4-triazole], the “antifertility activity (active: reduction of live fetuses in at least 60% of the treated animals)” value is “active”. Still for that read-out and setting: under `Cc1ccc(-c2nc(-c3ccccc3)n[nH]2)c(C)c1` [Example 25, 5-(2,4-Dimethylphenyl)-3-phenyl-1H-1,2,4-triazole] stands “active”; under `COc1cccc(-c2n[nH]c(-c3ccc(C)cc3C)n2)c1` [Example 26, 5-(2,4-Dimethylphenyl)-3-(m-methoxyphenyl)-1H-1,2,4-triazole], “active”; under `Cc1cc(Cl)ccc1-c1nc(-c2ccccc2)n[nH]1` [Example 29, 5-(4-Chloro-2-methylphenyl)-3-phenyl-1H-1,2,4-triazole], “active”. For `COc1cccc(-c2n[nH]c(-c3ccc(Cl)cc3C)n2)c1` [Example 30, 5-(4-Chloro-2-methylphenyl)-3-(m-methoxyphenyl)-1H-1,2,4-triazole], the “antifertility activity (active: reduction of live fetuses in at least 60% of the treated animals)” value was “active”. `COc1cccc(-c2n[nH]c(-c3cc(Cl)ccc3C)n2)c1` [Example 32, 5-(5-Chloro-2-methylphenyl)-3-(m-methoxyphenyl)-1H-1,2,4-triazole]: the “antifertility activity (active: reduction of live fetuses in at least 60% of the treated animals)” value was “active”.

A further assay deals with rats. As to the kind of experiment: Anti-reproductive activity in pregnant rats, subcutaneous (5 days from day 6, autopsy day 16). It counts as in vivo, Sprague-Dawley rats. Conditions: Rattus norvegicus, sc, 384 h, 20 mg/kg s.c., five consecutive days from day 6 of pregnancy, sesame oil, read-out: reduction of live fetuses, % of the treated rats. As to the method: The same criteria and experimental conditions as above were also applied when the anti-reproductive activity of the compounds of the invention was investigated in other animal species such as, for instance, rats, dogs, monkeys and baboons. In representative experiments, female Sprague-Dawley rats weighing from 200 to 300 g. were treated subcutaneously with a dosage of 20 mg/kg of the compound to be tested, dissolved in sesame oil, for five consecutive days starting from day 6 of pregnancy.
On to `CCOc1cccc(-c2n[nH]c(-c3ccccc3C)n2)c1` [Example 9, 3-(m-Ethoxyphenyl)-5-(o-tolyl)-1H-1,2,4-triazole], for which the responders at 20 mg/kg was not below 60%.

Take `C=CCOc1cccc(-c2n[nH]c(-c3ccccc3C)n2)c1` [Example 10, 3-(m-Allyloxyphenyl)-5-(o-tolyl)-1H-1,2,4-triazole]: the responders at 20 mg/kg is not below 60%. Still for that read-out and setting: under `Cc1ccccc1-c1nc(-c2ccc(-c3ccccc3)cc2)n[nH]1` [Example 11, 3-(1,1'-Biphenyl-4-yl)-5-(o-tolyl)-1H-1,2,4-triazole] stands not below 60%; under `C=CCOc1cccc(-c2n[nH]c(-c3ccccc3CC)n2)c1` [Example 13, 3-(m-Allyloxyphenyl)-5-(o-ethylphenyl)-1H-1,2,4-triazole], not below 60%; under `CCc1ccccc1-c1nc(-c2ccc(Cl)cc2)n[nH]1` [Example 14, 3-(p-Chlorophenyl)-5-(o-ethylphenyl)-1H-1,2,4-triazole], not below 60%. Same read-out and setting: as for `CC(C)c1ccccc1-c1nc(-c2ccccc2)n[nH]1` [Example 15, 5-(o-Isopropylphenyl)-3-phenyl-1H-1,2,4-triazole], the figure is not below 60%; as for `COc1cccc(-c2n[nH]c(-c3ccccc3C(C)C)n2)c1` [Example 16, 5-(o-Isopropylphenyl)-3-(m-methoxyphenyl)-1H-1,2,4-triazole], not below 60%.
